Measured values from publication PMC9247573 (Frontiers in Microbiology, 2022).
Residue numbers refer to the chain shown, from its start.

T1: EcPsuK (Escherichia coli, UniProt Z9FTQ0OEG4)
T1 construct: N-terminal His6-SUMO removed with Ulp1; host E. coli BL21(DE3)
T1 sequence (Z9FTQ0OEG4 1-313): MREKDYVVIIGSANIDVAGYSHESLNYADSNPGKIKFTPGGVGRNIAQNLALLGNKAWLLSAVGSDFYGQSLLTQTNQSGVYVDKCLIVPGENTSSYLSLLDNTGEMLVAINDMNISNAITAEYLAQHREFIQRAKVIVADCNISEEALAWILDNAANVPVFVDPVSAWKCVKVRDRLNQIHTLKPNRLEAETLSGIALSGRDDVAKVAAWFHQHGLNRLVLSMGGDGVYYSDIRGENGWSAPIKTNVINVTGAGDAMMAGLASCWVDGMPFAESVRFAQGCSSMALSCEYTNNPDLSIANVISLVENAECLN

B1: Escherichia coli pseudouridine kinase PsuK (enzyme, E. coli BL21 (DE3), UniProt P30235 1-313, looked up)
chain: T1 sequence (Z9FTQ0OEG4 1-313) with R129G, D203E, R235S, N238S
notes: E. coli pseudouridine kinase PsuK (YeiC), amplified from the E. coli BL21 (DE3) genome, Uniprot ID A0A140N873, aa 1-313 (313 residues, calculated 33.6 kDa); modelled from Arg2 to Asn308 in the apo structure; Cloned by BamHI and XhoI into a modified pET-28a with an Ulp1 cleavage site; also called EcPsuK; YeiC; source: E. coli BL21 (DE3), purified (Ni-NTA, Ulp1 cleavage, second Ni-NTA, Superdex …)

Experiments:
EcPsuK = molecular target: T1, EcPsuK; assay: X-ray crystallography, […] Å; type: binding; conditions: co-crystallised with ADP and Ψ, soaked with 1 mM Ψ and 4 mM ADP, MgCl2, pH 7.0, NaCl-purified protein; ADP not seen; nucleoside site; turnover also measured with ATP
[1] = molecular target: the molecule itself; assay: SEC; HiLoad 16/60 Superdex 200-pg, 10 mM Tris-HCl pH 8.0, 100 mM NaCl or 100 mM KCl; molecular weight of the purified protein against the calculated monomer

Row | Molecule | X-ray crystallography, 2.30 Å (EcPsuK) | stoichiometry N [1]
1 | O=c1[nH]cc([C@@H]2O[C@H](CO)[C@@H](O)[C@H]2O)c(=O)[nH]1 [pseudouridine] | we determined the crystal structure of EcPsuK complexed with pseudouridine through co-crystallization | –
2 | B1 | – | 2
